Reference: PubChem BioAssay AID1918995 (Molecular Pharmacology Branch, DTP, NCI, 2023)
pIC50: −log10 of the molar value.

Tested on: 324938-238-R-J1-PDC complex spheroid growth, % test/control
Experiment: Anticancer human tumor 324938-238-R-J1-PDC patient-derived bladder carcinoma cell line growth inhibition [AhR]
Conditions: for pIC50: curve of first compound; for viability, T/C: stronger effect = lower value
Summary of the method: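 Complex tumor spheroids co-cultured with HUVEC and human MSC stroma; AhR antagonists tested in combination with standard-of-care and investigational agents. Top concentration at or near clinical Cmax (else 10 microM), half-log dilutions; growth expressed as percent test/control.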
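Further: spheroids exposed to agents for seven days before viability read.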

## CC1(C)CCC(CN2CCN(c3ccc(C(=O)NS(=O)(=O)c4ccc(NCC5CCOCC5)c([N+](=O)[O-])c4)c(Oc4cnc5[nH]ccc5c4)c3)CC2)=C(c2ccc(Cl)cc2)C1 + Cc1ccccc1N=Nc1ccc(NC(=O)c2ccnn2C)c(C)c1
Second compound 0.1 µM
  pIC50: 5.02
Second compound 0.316 µM
  pIC50: < 5.00
Second compound 1 µM
  pIC50: 5.06
Second compound 3.16 µM
  pIC50: 5.22
Second compound 10 µM
  pIC50: 5.25
Second compound 0.1 µM, first compound 0.0316 µM
  viability, T/C: 87.7%
Second compound 0.1 µM, first compound 0.1 µM
  viability, T/C: 92.8%
Second compound 0.1 µM, first compound 0.316 µM
  viability, T/C: 93.6%
Second compound 0.1 µM, first compound 1 µM
  viability, T/C: 87.8%
Second compound 0.1 µM, first compound 3.16 µM
  viability, T/C: 80.7%
Second compound 0.1 µM, first compound 10 µM
  viability, T/C: 48.8%
Second compound 0.316 µM, first compound 0.0316 µM
  viability, T/C: 89.4%
Second compound 0.316 µM, first compound 0.1 µM
  viability, T/C: 90.5%
Second compound 0.316 µM, first compound 0.316 µM
  viability, T/C: 88%
Second compound 0.316 µM, first compound 1 µM
  viability, T/C: 83.3%
Second compound 0.316 µM, first compound 3.16 µM
  viability, T/C: 72%
Second compound 0.316 µM, first compound 10 µM
  viability, T/C: 52%
Second compound 1 µM, first compound 0.0316 µM
  viability, T/C: 83.5%
Second compound 1 µM, first compound 0.1 µM
  viability, T/C: 85.8%
Second compound 1 µM, first compound 0.316 µM
  viability, T/C: 80.7%
Second compound 1 µM, first compound 1 µM
  viability, T/C: 71.8%
Second compound 1 µM, first compound 3.16 µM
  viability, T/C: 71.1%
Second compound 1 µM, first compound 10 µM
  viability, T/C: 46.7%
Second compound 3.16 µM, first compound 0.0316 µM
  viability, T/C: 72.4%
Second compound 3.16 µM, first compound 0.1 µM
  viability, T/C: 71.8%
Second compound 3.16 µM, first compound 0.316 µM
  viability, T/C: 68.9%
Second compound 3.16 µM, first compound 1 µM
  viability, T/C: 69%
Second compound 3.16 µM, first compound 3.16 µM
  viability, T/C: 61.3%
Second compound 3.16 µM, first compound 10 µM
  viability, T/C: 41%
Second compound 10 µM, first compound 0.0316 µM
  viability, T/C: 73.8%
Second compound 10 µM, first compound 0.1 µM
  viability, T/C: 70.2%
Second compound 10 µM, first compound 0.316 µM
  viability, T/C: 69.6%
Second compound 10 µM, first compound 1 µM
  viability, T/C: 67.9%
Second compound 10 µM, first compound 3.16 µM
  viability, T/C: 58%
Second compound 10 µM, first compound 10 µM
  viability, T/C: 41.9%

## CCN(c1cc(-c2ccc(CN3CCOCC3)cc2)cc(C(=O)NCc2c(C)cc(C)[nH]c2=O)c1C)C1CCOCC1 + Cc1ccccc1N=Nc1ccc(NC(=O)c2ccnn2C)c(C)c1
Second compound 0.1 µM
  pIC50: < 5.52
Second compound 0.316 µM
  pIC50: < 5.52
Second compound 1 µM
  pIC50: < 5.52
Second compound 3.16 µM
  pIC50: < 5.52
Second compound 10 µM
  pIC50: < 5.52
Second compound 0.1 µM, first compound 0.00949 µM
  viability, T/C: 123%
Second compound 0.1 µM, first compound 0.03 µM
  viability, T/C: 113%
Second compound 0.1 µM, first compound 0.0949 µM
  viability, T/C: 111%
Second compound 0.1 µM, first compound 0.3 µM
  viability, T/C: 93.2%
Second compound 0.1 µM, first compound 0.949 µM
  viability, T/C: 96.2%
Second compound 0.1 µM, first compound 3 µM
  viability, T/C: 93.3%
Second compound 0.316 µM, first compound 0.00949 µM
  viability, T/C: 100%
Second compound 0.316 µM, first compound 0.03 µM
  viability, T/C: 111%
Second compound 0.316 µM, first compound 0.0949 µM
  viability, T/C: 106%
Second compound 0.316 µM, first compound 0.3 µM
  viability, T/C: 103%
Second compound 0.316 µM, first compound 0.949 µM
  viability, T/C: 108%
Second compound 0.316 µM, first compound 3 µM
  viability, T/C: 94.8%
Second compound 1 µM, first compound 0.00949 µM
  viability, T/C: 102%
Second compound 1 µM, first compound 0.03 µM
  viability, T/C: 101%
Second compound 1 µM, first compound 0.0949 µM
  viability, T/C: 94.9%
Second compound 1 µM, first compound 0.3 µM
  viability, T/C: 90%
Second compound 1 µM, first compound 0.949 µM
  viability, T/C: 98.7%
Second compound 1 µM, first compound 3 µM
  viability, T/C: 93.2%
Second compound 3.16 µM, first compound 0.00949 µM
  viability, T/C: 82.4%
Second compound 3.16 µM, first compound 0.03 µM
  viability, T/C: 100%
Second compound 3.16 µM, first compound 0.0949 µM
  viability, T/C: 81.9%
Second compound 3.16 µM, first compound 0.3 µM
  viability, T/C: 90.2%
Second compound 3.16 µM, first compound 0.949 µM
  viability, T/C: 91.8%
Second compound 3.16 µM, first compound 3 µM
  viability, T/C: 93.6%
Second compound 10 µM, first compound 0.00949 µM
  viability, T/C: 88.4%
Second compound 10 µM, first compound 0.03 µM
  viability, T/C: 89.6%
Second compound 10 µM, first compound 0.0949 µM
  viability, T/C: 82%
Second compound 10 µM, first compound 0.3 µM
  viability, T/C: 87%
Second compound 10 µM, first compound 0.949 µM
  viability, T/C: 77.5%
Second compound 10 µM, first compound 3 µM
  viability, T/C: 84.8%
